According to patent US20200048183A1, “ANTIMICROBIAL AGENTS” (THE UNIVERSITY OF WARWICK, priority 2017, published 2020):
Converted amounts (≈) assume the structure as drawn.

tested on: multi-drug resistant A. baumannii strains; experiment: Minimum inhibitory concentration (MIC), broth microdilution method according to CLSI guidelines; assay type: cell-based, Acinetobacter baumannii; details: Acinetobacter baumannii, 18 h, read-out: MIC against A. baumannii
Procedure: MIC values for the compounds were determined using the broth microdilution method according to the official CLSI guidelines. Acinetobacter baumannii test strains were grown overnight in Mueller-Hinton (MH) broth at 37° C. In a 96-well microtiter plate, 50 μl of serial two-fold dilutions of an enacyloxin derivative in MH broth were mixed with 50 μl of bacterial suspension, diluted to a concentration of 10^6 CFU/ml in MH broth. The desired inoculum density was achieved using a 0.5 McFarland turbidity standard.

Row | Compound | MIC
1 | CC/C=C/[C@@H](OC(N)=O)[C@@H](Cl)[C@H](O)CC(O)[C@@H](O)[C@H](O)[C@H](C)/C(Cl)=C/C=C/C=C(C)/C=C/C=C/C(=O)O[C@@H]1C[C@@H](C(=O)O)CC[C@@H]1O (stereo in doubt) [Compound 8, 15-hydroxy-enacyloxin IIa] | 8 µg/mL (≈ 11.4 µM)
2 | CC/C=C/[C@@H](OC(N)=O)[C@@H](Cl)[C@H](O)CC(=O)[C@@H](O)[C@H](O)[C@H](C)/C(Cl)=C/C=C/C=C(C)/C=C/C=C/C(=O)O[C@@H]1C[C@@H](C(=O)O)C[C@@H](O)[C@@H]1O [Compound 4, 5′-hydroxy-enacyloxin IIa] | 16 µg/mL (≈ 22.3 µM)
3 | CC/C=C/C(=O)C[C@H](O)CC(=O)[C@@H](O)[C@H](O)[C@H](C)/C(Cl)=C/C=C/C=C(C)/C=C/C=C/C(=O)O[C@@H]1C[C@@H](C(=O)O)CC[C@@H]1O [Compound 10, 18-dechloro-decarbamoyl-enacyloxin IIa] | 32 µg/mL (≈ 51.4 µM)
4 | CC/C=C/[C@@H](OC(N)=O)[C@@H](Cl)[C@H](O)CC(=O)[C@@H](O)[C@H](O)[C@H](C)/C(Cl)=C/C=C/C=C(C)/C=C/C=C/C(=O)NCC(O)CC(=O)O (stereo partly drawn) [Compound 23, enacyloxin-4-amino-3-hydroxybutyric acid conjugate] | 64 µg/mL (≈ 96.7 µM)
5 | CC/C=C/[C@@H](O)[C@@H](Cl)[C@H](O)CC(O)[C@@H](O)[C@H](O)[C@H](C)/C(Br)=C/C=C/C=C(C)/C=C/C=C/C(=O)O[C@@H]1C[C@@H](C(=O)O)CC[C@@H]1O (stereo partly drawn) [Compound 34] | 2 µg/mL (≈ 2.83 µM)

same assay, conditions: Acinetobacter baumannii; multi-drug resistant A. baumannii strains; broth microdilution in MH broth, 18 h at 37° C.; read-out: MIC against A. baumannii

Row | Compound | MIC
6 | CC/C=C/[C@@H](O)[C@@H](Cl)[C@H](O)CC(O)[C@@H](O)[C@H](O)[C@H](C)/C(Cl)=C/C=C/C=C(C)/C=C/C=C/C(=O)O[C@@H]1C[C@@H](C(=O)O)CC[C@@H]1O (stereo in doubt) [Compound 9, 15-hydroxy-decarbamoyl enacyloxin IIa] | 1 µg/mL (≈ 1.51 µM)
7 | CC/C=C/[C@@H](OC(N)=O)[C@@H](Cl)[C@H](O)CC(=O)C[C@H](O)[C@H](C)/C(Cl)=C/C=C/C=C(C)/C=C/C=C/C(=O)O[C@@H]1C[C@@H](C(=O)O)CC[C@@H]1O [Compound 1, 14-dehydroxy-enacyloxin IIa] | 2 µg/mL (≈ 2.91 µM)
8 | CC/C=C/C1OC(O)([C@@H](O)[C@H](O)[C@H](C)/C(Cl)=C/C=C/C=C(C)/C=C/C=C/C(=O)O[C@@H]2C[C@@H](C(=O)O)CC[C@@H]2O)CC(O)C1Cl (stereo partly drawn) [Compound 3, decarbamoyl-enacyloxin IIa] | 4 µg/mL (≈ 6.06 µM)
9 | CC/C=C/C1OC(O)(C[C@H](O)[C@H](C)/C(Cl)=C/C=C/C=C(C)/C=C/C=C/C(=O)O[C@@H]2C[C@@H](C(=O)O)CC[C@@H]2O)CC(O)C1Cl (stereo partly drawn) [Compound 5, 14-dehydroxy-18-decarbamoyl-enacyloxin IIa] | 8 µg/mL (≈ 12.4 µM)
10 | CC/C=C/[C@H](C[C@H](O)CC(=O)C[C@H](O)[C@H](C)/C(Cl)=C/C=C/C=C(C)/C=C/C=C/C(=O)O[C@@H]1C[C@@H](C(=O)O)CC[C@@H]1O)OC(N)=O [Compound 6, 14-dehydroxy-18-dechloro-enacyloxin IIa] | 8 µg/mL (≈ 12.3 µM)
11 | CC/C=C/[C@@H](OC(N)=O)[C@@H](Cl)[C@H](O)CC(=O)[C@@H](O)[C@H](O)[C@H](C)/C=C/C=C/C=C(C)/C=C/C=C/C(=O)O[C@@H]1C[C@@H](C(=O)O)CC[C@@H]1O [Compound 7, 11-dechloro-enacyloxin IIa] | 4 µg/mL (≈ 5.99 µM)
12 | CC/C=C/[C@@H](O)C[C@H](O)CC(O)[C@@H](O)[C@H](O)[C@H](C)/C(Cl)=C/C=C/C=C(C)/C=C/C=C/C(=O)O[C@@H]1C[C@@H](C(=O)O)CC[C@@H]1O (stereo partly drawn) [Compound 11] | 8 µg/mL (≈ 12.8 µM)
13 | CC/C=C/[C@@H](O)C[C@H](O)CC(O)C[C@H](O)[C@H](C)/C=C/C=C/C=C(C)/C=C/C=C/C(=O)O[C@@H]1C[C@@H](C(=O)O)CC[C@@H]1O (stereo partly drawn) [Compound 12] | > 64 µg/mL
14 | CC/C=C/[C@@H](OC(N)=O)[C@@H](Cl)[C@H](O)CC(=O)[C@@H](O)[C@H](O)[C@H](C)/C(Cl)=C/C=C/C=C(C)/C=C/C=C/C(=O)O[C@@H]1C[C@H](C(=O)O)CC[C@H]1O [Compound 17] | 2 µg/mL (≈ 2.85 µM)
15 | CC/C=C/[C@@H](OC(N)=O)[C@@H](Cl)[C@H](O)CC(=O)[C@@H](O)[C@H](O)[C@H](C)/C(Cl)=C/C=C/C=C(C)/C=C/C=C/C(=O)N[C@H]1CCC[C@H](C(=O)O)C1 [Compound 21] | 8 µg/mL (≈ 11.7 µM)
16 | CC/C=C/[C@@H](OC(N)=O)[C@@H](Cl)[C@H](O)CC(=O)[C@@H](O)[C@H](O)[C@H](C)/C(Cl)=C/C=C/C=C(C)/C=C/C=C/C(=O)O[C@H]1CCC[C@H](C(=O)O)C1 [Compound 22] | 4 µg/mL (≈ 5.83 µM)
17 | CC/C=C/[C@@H](OC(N)=O)[C@@H](Cl)[C@H](O)CC(=O)[C@@H](O)[C@H](O)[C@H](C)/C(Cl)=C/C=C/C=C(C)/C=C/C=C/C(=O)O[C@@H]1CC(C(=O)O)=CC[C@@H]1O [Compound 28, Δ5912-14 unsaturated enacyloxin analogue] | 0.5 µg/mL (≈ 0.714 µM)
18 | CC/C=C/[C@@H](O)[C@@H](Cl)[C@H](O)C[C@@H](O)[C@@H](O)[C@H](O)[C@H](C)/C(Cl)=C/C=C/C=C(C)/C=C/C=C/C(=O)O[C@@H]1CC(C(=O)O)=CC[C@@H]1O [Compound 29, Δ5930/32/12-14 unsaturated enacyloxin analogue] | 1 µg/mL (≈ 1.52 µM)
19 | CC/C=C/[C@@H](OC(N)=O)[C@@H](Br)[C@H](O)CC(=O)[C@@H](O)[C@H](O)[C@H](C)/C(Br)=C/C=C/C=C(C)/C=C/C=C/C(=O)O[C@@H]1C[C@@H](C(=O)O)CC[C@@H]1O [Compound 30] | 1 µg/mL (≈ 1.26 µM)
20 | CC/C=C/[C@@H](OC(N)=O)[C@@H](Cl)[C@H](O)CC(=O)[C@@H](O)[C@H](O)[C@H](C)/C(Br)=C/C=C/C=C(C)/C=C/C=C/C(=O)O[C@@H]1C[C@@H](C(=O)O)CC[C@@H]1O [Compound 31] | 2 µg/mL (≈ 2.68 µM)
21 | CC/C=C/[C@H](C[C@H](O)CC(=O)[C@@H](O)[C@H](O)[C@H](C)/C(Br)=C/C=C/C=C(C)/C=C/C=C/C(=O)O[C@@H]1C[C@@H](C(=O)O)CC[C@@H]1O)OC(N)=O [Compound 32] | 16 µg/mL (≈ 22.5 µM)
22 | CC/C=C/[C@@H](O)[C@@H](Br)[C@H](O)CC(O)[C@@H](O)[C@H](O)[C@H](C)/C(Br)=C/C=C/C=C(C)/C=C/C=C/C(=O)O[C@@H]1C[C@@H](C(=O)O)CC[C@@H]1O (stereo partly drawn) [Compound 33] | 1 µg/mL (≈ 1.33 µM)
23 | CC/C=C/[C@@H](O)C[C@H](O)CC(O)[C@@H](O)[C@H](O)[C@H](C)/C(Br)=C/C=C/C=C(C)/C=C/C=C/C(=O)O[C@@H]1C[C@@H](C(=O)O)CC[C@@H]1O (stereo partly drawn) [Compound 35] | 32 µg/mL (≈ 47.6 µM)

same assay, conditions: multi-drug resistant A. baumannii strains; broth microdilution in MH broth, 18 h at 37° C.

Row | Compound | MIC against A. baumannii
24 | 18-dechloro-enacyloxin IIa [Compound 2] | 4 µg/mL
